Source: patent US9580396B2, “C6-spiro iminothiadiazine dioxides as BACE inhibitors, compositions, and their use” (Merck Sharp & Dohme Corp., priority 2012, dated 2017)

Experiments:
[1] = biological target: soluble human BACE1 catalytic domain (Homo sapiens (Human), UniProt P56817); assay: BACE1 HTRF FRET Assay; format: biochemical; conditions: Ki calculated from IC50 using the Cheng-Prusoff equation; QSY7-APPswe-Eu substrate, pH 5.0
From the text: Na^+-Acetate pH 5.0; 1% Brij-35; Glycerol; Dimethyl Sulfoxide (DMSO); Recombinant human soluble BACE1 catalytic domain (>95% pure); APP Swedish mutant peptide substrate (QSY7-APP^swe-Eu): QSY7-EISEVNLDAEFC-Europium-amide.
A homogeneous time-resolved FRET assay can be used to determine IC50 values for inhibitors of the soluble human BACE1 catalytic domain. This assay monitors the increase of 620 nm fluorescence that resulted from BACE1 cleavage of an APPswedish APP^swe mutant peptide FRET substrate (QSY7-EISEVNLDAEFC-Europium-amide). This substrate contains an N-terminal QSY7 moiety that serves as a quencher of the C-terminal Europium fluorophore (620 nm Em). In the absence of enzyme activity, 620 nm fluorescence is low in the assay and increased linearly over 3 hours in the presence of uninhibited BACE1 enzyme Inhibition of BACE1 cleavage of the QSY7-APP^swe-Eu substrate by inhibitors is manifested as a suppression of 620 nm fluorescence.
Varying concentrations of inhibitors at 3× the final desired concentration in a volume of 10 ul are preincubated with purified human BACE1 catalytic domain (3 nM in 10 μl) for 30 minutes at 30° C. in reaction buffer containing 20 mM Na-Acetate pH 5.0, 10% glycerol, 0.1% Brij-35 and 7.5% DSMO. Reactions are initiated by addition of 10 μl of 600 nM QSY7-APP^swe-Eu substrate (200 nM final) to give a final reaction volume of 30 μl in a 384 well Nunc HTRF plate. The reactions are incubated at 30° C. for 1.5 hours. The 620 nm fluorescence is then read on a Rubystar HTRF plate reader (BMG Labtechnologies) using a 50 millisecond delay followed by a 400 millisecond acquisition time window Inhibitor IC50 values are derived from non-linear regression analysis of concentration response curves. Ki values are then calculated from IC50 values using the Cheng-Prusoff equation using a previously determined […] of 8 μM for the QSY7-APP^swe-Eu substrate at BACE1.

[2] = biological target: purified human autoBACE-2 (Homo sapiens (Human), UniProt Q9Y5Z0); assay: BACE-2 Assay (BACE-HTRF assay); format: biochemical; conditions: Ki calculated from IC50 using the Cheng-Prusoff equation; QSY7-EISEVNLDAEFC-Eu-amide substrate, pH 5.0; read-out: BACE2 Ki
Sequence of purified human autoBACE-2 (Q9Y5Z0 63-473): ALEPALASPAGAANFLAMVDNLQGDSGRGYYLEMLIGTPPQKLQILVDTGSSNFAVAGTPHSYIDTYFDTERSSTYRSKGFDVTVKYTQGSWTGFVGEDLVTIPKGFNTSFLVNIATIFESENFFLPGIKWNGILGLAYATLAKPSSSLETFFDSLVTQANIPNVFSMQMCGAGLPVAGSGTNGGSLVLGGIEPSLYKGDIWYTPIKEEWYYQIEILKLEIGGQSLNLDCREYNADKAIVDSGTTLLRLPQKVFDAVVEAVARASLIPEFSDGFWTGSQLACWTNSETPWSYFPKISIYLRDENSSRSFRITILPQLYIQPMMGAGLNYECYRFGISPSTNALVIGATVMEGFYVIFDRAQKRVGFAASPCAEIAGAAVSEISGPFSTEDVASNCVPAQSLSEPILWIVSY
Procedure: Inhibitor IC50s at purified human autoBACE-2 are determined in a time-resolved endpoint proteolysis assay that measures hydrolysis of the QSY7-[…]-Eu-amide FRET peptide substrate (BACE-HTRF assay). […] DMSO is present at 5% final concentration in the assay. Following laser excitation of sample wells at 320 nm, the fluorescence signal at 620 nm is collected for 400 ms following a 50 μs delay on a RUBYstar HTRF plate reader (BMG Labtechnologies). Raw RFU data is normalized to maximum (1.0 nM BACE/DMSO) and minimum (no enzyme/DMSO) RFU values. […] The Ki values are calculated from the IC50 using the Cheng-Prusoff equation.

Sequence of soluble human BACE1 catalytic domain (P56817 75-416): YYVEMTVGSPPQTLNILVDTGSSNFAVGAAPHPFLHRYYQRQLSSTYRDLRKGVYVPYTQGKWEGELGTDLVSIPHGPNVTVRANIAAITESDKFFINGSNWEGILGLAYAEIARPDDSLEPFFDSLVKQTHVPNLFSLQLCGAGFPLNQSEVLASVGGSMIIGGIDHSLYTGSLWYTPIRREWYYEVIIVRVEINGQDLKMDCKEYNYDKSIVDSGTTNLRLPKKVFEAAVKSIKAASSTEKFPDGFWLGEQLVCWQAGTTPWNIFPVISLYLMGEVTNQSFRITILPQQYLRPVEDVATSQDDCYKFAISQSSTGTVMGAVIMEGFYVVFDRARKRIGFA

| Compound | Ki [1] | Ki [2] |
| --- | --- | --- |
| CN1C(=N)N[C@@]2(CCCc3ccc(NC(=O)c4cnc(C(F)(F)F)cn4)cc32)CS1(=O)=O [Example 5s] | 253 nM | 685 nM |
| CN1C(=N)N[C@@]2(CCCc3ccc(NC(=O)c4cnsn4)cc32)CS1(=O)=O [Example 5t] | 264 nM | 56 nM |
| CN1C(=N)N[C@@]2(CCCc3ccc(NC(=O)c4cc5ccccn5n4)cc32)CS1(=O)=O [Example 5u] | 1340 nM | 385 nM |
| CN1C(=N)N[C@@]2(CCCc3ccc(NC(=O)c4ccc(C(F)(F)F)cn4)cc32)CS1(=O)=O [Example 5v] | 55 nM | 171 nM |
| CN1C(=N)N[C@@]2(CCCc3ccc(NC(=O)c4ccn(C(F)F)n4)cc32)CS1(=O)=O [Example 5w] | 20 nM | 3 nM |
